What all share (assay type): binding
Assay [1] has as its target T1, AKT1 E17K (Homo sapiens, UniProt P31749, E17K).
T1 construct: expressed in transfected cells; host or cells: HEK293
Put plainly: Live cell AKT1 E17K target engagement by NanoBRET competitive probe displacement in HEK293 cells. As to conditions: 2 h at 37° C. On the procedure: Determining live cell AKT1 E17K, AKT1 WT, and AKT2 target engagement by NanoBRET competitive probe displacement. Live cell target engagement assays were performed as described (Vasta, J. D. et al. Cell Chem Biol 2018, 25(11), 206-214). Briefly, HEK293 cells were transfected with plasmids encoding kinase-NanoLuciferase fusion proteins overnight. Cells were then treated with serial dilutions of compound and an ˜EC50 concentration of fluorescently-tagged ATP-competitive tracer (Promega). After incubation for 2 h at 37° C., luciferase substrate and extracellular luciferase inhibitor were added to all wells, and luminescent intensity at 460 nm and 600 nm were measured on a multimode plate-reader. The ratio of E600/E460 was calculated to give the tracer engagement signal (BRET). IC50 values were calculated by fitting BRET values to a log(inhibitor) vs. response Hill equation.
In general terms: Bioluminescence resonance energy transfer reports proximity on the nanometre scale.

The target in assay [2] is T2, AKT1 WT (Homo sapiens, UniProt P31749).
T2 construct: expressed in transfected cells; host or cells: HEK293
T2 sequence (P31749 whole entry): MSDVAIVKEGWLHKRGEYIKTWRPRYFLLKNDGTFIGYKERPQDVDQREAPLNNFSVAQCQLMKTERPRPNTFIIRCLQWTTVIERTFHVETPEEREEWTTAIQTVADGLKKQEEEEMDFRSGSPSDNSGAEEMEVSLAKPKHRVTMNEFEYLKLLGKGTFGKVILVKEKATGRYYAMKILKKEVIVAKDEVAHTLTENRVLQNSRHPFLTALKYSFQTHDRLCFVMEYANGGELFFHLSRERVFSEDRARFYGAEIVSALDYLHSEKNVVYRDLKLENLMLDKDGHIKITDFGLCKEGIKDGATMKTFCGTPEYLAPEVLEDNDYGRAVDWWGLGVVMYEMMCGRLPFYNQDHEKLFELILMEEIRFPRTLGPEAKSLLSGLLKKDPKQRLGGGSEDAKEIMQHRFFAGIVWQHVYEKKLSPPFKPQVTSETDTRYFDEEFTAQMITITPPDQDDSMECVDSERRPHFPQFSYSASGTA
Put plainly: Live cell AKT1 WT target engagement by NanoBRET competitive probe displacement in HEK293 cells. To be noted: 2 h at 37° C., read-out: AKT1 WT IC50.

Assay [3] concerns the target T3, AKT2 (Homo sapiens, UniProt P31751).
T3 construct: expressed in transfected cells; host or cells: HEK293
Put plainly: Live cell AKT2 target engagement by NanoBRET competitive probe displacement in HEK293 cells. To be noted: 2 h at 37° C., read-out: AKT2 IC50.

Where [4] appears, read: NanoBRET live cell target engagement, HEK293 cells.
The mark [5] stands for this setting: NanoBRET competitive probe displacement, live HEK293 cells.

Usually IC50 stands for the concentration at which inhibition is half-maximal.

Where two headings read alike, the source gives them in different places.

T3 sequence (P31751 whole entry): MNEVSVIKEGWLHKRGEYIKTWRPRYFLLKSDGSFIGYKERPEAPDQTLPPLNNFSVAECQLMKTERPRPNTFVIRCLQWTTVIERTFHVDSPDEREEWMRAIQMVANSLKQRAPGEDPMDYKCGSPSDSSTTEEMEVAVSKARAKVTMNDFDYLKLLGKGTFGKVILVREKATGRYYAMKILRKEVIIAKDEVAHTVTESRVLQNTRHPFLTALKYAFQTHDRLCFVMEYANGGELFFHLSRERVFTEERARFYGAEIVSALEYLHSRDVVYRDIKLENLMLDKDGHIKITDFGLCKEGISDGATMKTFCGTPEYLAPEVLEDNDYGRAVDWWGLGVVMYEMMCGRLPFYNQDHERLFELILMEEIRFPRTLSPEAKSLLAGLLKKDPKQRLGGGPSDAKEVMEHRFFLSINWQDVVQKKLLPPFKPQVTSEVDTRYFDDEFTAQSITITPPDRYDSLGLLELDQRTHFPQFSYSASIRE
T1 sequence (P31749 whole entry E17K): as the sequence (P31749 whole entry) above, with E17K counted along it

For `CC(=O)N[C@H]1CCc2cc(-n3c(-c4cccnc4N)nc4ccc(-n5cccn5)nc43)ccc21` [Compound 1, (S)—N-(5-(2-(2-aminopyridin-3-yl)-5-(1H-pyrazol-1-yl)-3H-imidazo[4,5-b]pyridin-3-yl)-2,3-dihydro-1H-inden-1-yl)acetamide], the IC50 is above 1000 nM in assay [1] (setting [4]), above 737 nM in assay [2] (setting [4]) and 4310 nM in assay [3] (setting [4]).
Consider `C#CC1(OCC(=O)N[C@H]2CCc3cc(-n4c(-c5cccnc5N)nc5ccc(-n6cccn6)nc54)ccc32)COC1` [Compound 9, N—{(S)-5-[2-(2-amino-3-pyridyl)-5-(1-pyrazolyl)-3H-1,3,4-triazainden-3-yl]-1-indanyl}(3-ethynyl-3-oxetanyloxy)acetamide], for which the IC50 in assay [1] (setting [4]) is above 1000 nM; in assay [2] (setting [4]), above 1000 nM; in assay [3] (setting [4]), 8890 nM.
Turning to `N#Cc1ncnc(N2CCC(N[C@H]3CCc4cc(-n5c(-c6cccnc6N)nc6ccc(-n7cccn7)nc65)ccc43)CC2)n1` [Compound 592], the IC50 stood at 5.5 nM in assay [1] (setting [5]), 4.32 nM in assay [2] (setting [5]) and 11 nM in assay [3] (setting [5]).
For `N#Cc1nc(N2CCC(N[C@H]3CCc4cc(-n5c(-c6cccnc6N)nc6ccc(-n7cccn7)nc65)ccc43)CC2)cs1` [Compound 593], the concentration for half-maximal inhibition (IC50) in assay [1] (setting [5]) came out at 22 nM; in assay [2] (setting [5]), 4.56 nM; in assay [3] (setting [5]) it was 23.7 nM.
On the same counts, the results for `N#Cc1nccc(C(=O)N2CCC(N[C@H]3CCc4cc(-n5c(-c6cccnc6N)nc6ccc(-n7cccn7)nc65)ccc43)CC2)n1` [Compound 580] are 11.4 nM, 11.2 nM and 24.4 nM.
Take `N#Cc1nc2c(c(N3CCC(N[C@H]4CCc5cc(-n6c(-c7cccnc7N)nc7ccc(-n8cccn8)nc76)ccc54)CC3)n1)CCC2` [Compound 603]: the IC50 in assay [1] (setting [5]) was found to be 16.5 nM; in assay [2] (setting [5]), 7.65 nM; in assay [3] (setting [5]), 76.8 nM.
As to `N#Cc1nccc(N2CCC(N[C@@H]3c4ccc(-n5c(-c6cccnc6N)nc6ccc(-n7cccn7)nc65)cc4CC3F)CC2)n1` (stereo partly shown) [Compound 579], the IC50 in assay [1] (setting [5]) was 9.88 nM; in assay [2] (setting [5]), 5.42 nM; in assay [3] (setting [5]), 26.6 nM.
On the same counts, the results for `Cc1cnc(C#N)nc1N1CCC(N[C@H]2CCc3cc(-n4c(-c5cccnc5N)nc5ccc(-n6cccn6)nc54)ccc32)CC1` [Compound 585] are 8.23 nM, 4.77 nM and 10.7 nM.
On the same counts, the results for `COc1cnc(C#N)nc1N1CCC(N[C@H]2CCc3cc(-n4c(-c5cccnc5N)nc5ccc(-n6cccn6)nc54)ccc32)CC1` [Cpd 586] are 17.3 nM, 6.98 nM and 43 nM.
The matching figures for `N#Cc1nccc(N2CC(N[C@H]3CCc4cc(-n5c(-c6cccnc6N)nc6ccc(-n7cccn7)nc65)ccc43)C2)n1` [Compound 581]: 20.8 nM, 6.51 nM and 38.4 nM.
For the compound `COc1cc(-c2ccc3nc(-c4cccnc4N)n(-c4ccc5c(c4)CC(F)[C@@H]5NC4CCN(C(=O)C5CC5)CC4)c3n2)ccn1` (stereo partly shown) [Compound 543], the figures for the IC50 in assay [1] (setting [5]), in assay [2] (setting [5]) and in assay [3] (setting [5]) were 526 nM, 81 nM and 1210 nM, respectively.
In the case of `CN1C(=O)CCC1CC(=O)N[C@H]1CCc2cc(-n3c(-c4cccnc4N)nc4ccc(-n5cccn5)nc43)ccc21` (mixture of isomers) [Compound 11, N—{(S)-5-[2-(2-amino-3-pyridyl)-5-(1-pyrazolyl)-3H-1,3,4-triazainden-3-yl]-1-indanyl}(1-methyl-5-oxo-2-pyrrolidinyl)acetamide], the results for the IC50 in assay [1] (setting [4]), in assay [2] (setting [4]) and in assay [3] (setting [4]) were above 1000 nM, above 1000 nM and above 10000 nM, respectively.
With `CN(CCC1CC1)[C@H]1CCc2cc(-n3c(-c4cccnc4N)nc4ccc(-n5cccn5)nc43)ccc21` [Compound 458], the IC50 in assay [2] (setting [5]) was 93.4 nM; in assay [3] (setting [5]), 2800 nM.
With `CC(=O)Nc1ccc(C(=O)N[C@H]2CCc3cc(-n4c(-c5cccnc5N)nc5ccc(-n6cccn6)nc54)ccc32)cc1F` [Compound 309], the IC50 in assay [2] (setting [4]) was 10.8 nM; in assay [3] (setting [4]), 8.38 nM.
Regarding `Nc1ncccc1-c1nc2ccc(-n3ccc(C4CCOCC4)n3)nc2n1-c1ccc2c(c1)CC[C@@H]2NC1CCN(C(=O)C2CC2)CC1` [Compound 487], the results for the IC50 in assay [2] (setting [5]) and in assay [3] (setting [5]) were 42.8 nM and above 10000 nM, respectively.
For the compound `Cn1ccc(-c2cn([C@H]3CCc4cc(-n5c(-c6cccnc6N)nc6ccc(-n7cccn7)nc65)ccc43)nn2)n1` [Compound 197], the results for the IC50 in assay [2] (setting [4]) and in assay [3] (setting [4]) were 14.7 nM and 95.3 nM, respectively.
In the case of `Nc1ncccc1-c1nc2ccc(-n3cccn3)nc2n1-c1ccc2c(c1)CC[C@@H]2NC(=O)c1ccc2[nH]c(=O)sc2c1` [Compound 233], the values for the IC50 in assay [2] (setting [4]) and in assay [3] (setting [4]) were 12.3 nM and 24.2 nM, respectively.
With `COc1ccn(-c2ccc3nc(-c4cccnc4N)n(-c4ccc5c(c4)CC[C@@H]5NC4CN(C(=O)C5CC5)C4)c3n2)n1` [Compound 484], the IC50 in assay [2] (setting [5]) stood at 28.4 nM; in assay [3] (setting [5]), 3850 nM.
As to `Nc1ncccc1-c1nc2ccc(-n3cccn3)nc2n1-c1ccc2c(c1)CC[C@@H]2NCc1cccnc1` [Compound 141], the half-inhibitory concentration (IC50) in assay [2] (setting [4]) worked out at 52.6 nM; in assay [3] (setting [4]) it was 734 nM.
With `CSc1ccn(-c2ccc3nc(-c4cccnc4N)n(-c4ccc5c(c4)CC[C@@H]5NC4CCN(C(=O)C5CC5)CC4)c3n2)n1` [Compound 518], the IC50 in assay [2] (setting [5]) was 32 nM; in assay [3] (setting [5]) it was 1290 nM.
Regarding `CN(C)c1ccn(-c2ccc3nc(-c4cccnc4N)n(-c4ccc5c(c4)CC[C@@H]5NC4CCN(c5ccn(C)n5)CC4)c3n2)n1` [Compound 589], the half-maximal inhibitory concentration (IC50) in assay [2] (setting [5]) stood at 16.8 nM; in assay [3] (setting [5]) it was 650 nM.
Take `Nc1ncccc1-c1nc2ccc(-n3ccc(Oc4ccncc4)n3)nc2n1-c1ccc2c(c1)CC[C@@H]2NC1CCN(C(=O)C2CC2)CC1` [Compound 575]: the concentration for half-maximal inhibition (IC50) is 221 nM in assay [2] (setting [5]) and 3300 nM in assay [3] (setting [5]).
As to `Cc1cc(C(=O)N[C@H]2CCc3cc(-n4c(-c5cccnc5N)nc5ccc(-n6cccn6)nc54)ccc32)c(C)nc1C` [Compound 150], the values for the half-maximal inhibitory concentration (IC50) in assay [2] (setting [4]) and in assay [3] (setting [4]) were 18.2 nM and 107 nM, respectively.
As for `CC(C)(O)c1ccn(-c2ccc3nc(-c4cccnc4N)n(-c4ccc5c(c4)CC[C@@H]5NC4CCN(C(=O)C5CC5)CC4)c3n2)n1` [Compound 569], the IC50 in assay [2] (setting [5]) is 77.4 nM; in assay [3] (setting [5]), 808 nM.
The matching figures for `Cn1ccc(N2CCC(N[C@H]3CCc4cc(-n5c(-c6cccnc6N)nc6ccc(-n7ccc(N8CCC8)n7)nc65)ccc43)CC2)n1` [Compound 596]: 12.9 nM and 689 nM.
On to `Nc1ncccc1-c1nc2ccc(-n3cccn3)nc2n1-c1ccc2c(c1)CC[C@@H]2NCc1ccnc(OC(F)(F)F)c1` [Compound 305], for which the IC50 in assay [2] (setting [4]) was determined as 32.1 nM; in assay [3] (setting [4]) it was 1160 nM.
With `Nc1ncccc1-c1nc2ccc(-n3ccc(OC(F)F)n3)nc2n1-c1ccc2c(c1)CC[C@@H]2NC(=O)c1ccc(C2CC2)nc1` [Compound 537], the IC50 was 2.77 nM in assay [2] (setting [5]) and 15.3 nM in assay [3] (setting [5]).
For `COCc1ncccc1C(=O)N[C@H]1CCc2cc(-n3c(-c4cccnc4N)nc4ccc(-n5cccn5)nc43)ccc21` [Compound 149], the IC50 in assay [2] (setting [4]) turned out to be 50.3 nM; in assay [3] (setting [4]), 1580 nM.
For the compound `Cc1ccc(C(=O)N[C@H]2CCc3cc(-n4c(-c5cccnc5N)nc5ccc(-n6cccn6)nc54)ccc32)c(C(F)F)n1` [Compound 167], the results for the IC50 in assay [2] (setting [4]) and in assay [3] (setting [4]) were 40.9 nM and 830 nM, respectively.

Source of the values: patent US12624034B2, “Non-covalent modifiers of AKT1 and uses thereof” (Terremoto Biosciences, Inc., priority 2023, dated 2026).
